From ChEMBL document CHEMBL3875176, “Synthesis and evaluation of in vitro antiproliferative activity of new ethyl 3-(arylethynyl)quinoxaline-2-carboxylate and pyrido[4,3-b]quinoxalin-1(2H)-one derivatives” (Eur J Med Chem, 2016) come the findings set out here.

The pIC50 is the negative decadic logarithm of the IC50, by convention in mol/L.

pIC50: −log10 of the molar value.

A short description of experiment [1]: Antiproliferative activity against human A549 cells after 72 hrs by MTT assay. Type of experiment: functional, cell-based. The following applies: A549, 72 h.
Experiment [2] is described as follows: Antiproliferative activity against human U87MG cells after 72 hrs by MTT assay. As to conditions: U-87 MG. The experiment is classed as functional, cell-based, U-87MG ATCC.

As for `CCOC(=O)c1nc2ccccc2nc1C#CC1CCCC1`, the negative-log IC50 (pIC50) in experiment [1] is 4.95; in experiment [2], 4.94.

With `CCOC(=O)c1nc2ccccc2nc1C#Cc1ccccc1C`, the negative-log IC50 (pIC50) in experiment [1] was 4.57; in experiment [2], 4.50.

Turning to `CCOC(=O)c1nc2ccccc2nc1C#Cc1ccccc1`, the pIC50 in experiment [1] and in experiment [2] was 5.48 throughout.

In the case of `CCOC(=O)c1nc2ccccc2nc1C#Cc1cccc(C)c1`, the pIC50 in experiment [1] was 5.19; in experiment [2] it was 5.26.

As to `CCOC(=O)c1nc2ccccc2nc1C#Cc1ccccc1OC`, the negative logarithm of the IC50 (pIC50) in experiment [1] was 5.10; in experiment [2], 4.94.

Turning to `O=c1c2nc3ccccc3nc2cc(-c2ccccc2)n1-c1ccccc1`, the negative logarithm of the IC50 (pIC50) in experiment [1] was 4.33; in experiment [2], 4.67.

Turning to `Cc1ccc(-c2cc3nc4ccccc4nc3c(=O)n2-c2ccccc2)cc1`, the pIC50 in experiment [1] is 4.40; in experiment [2], 4.63.

Consider `O=c1c2nc3ccccc3nc2cc(-c2ccccc2)n1-c1ccc(Cl)cc1`, for which the pIC50 in experiment [1] was 4.37; in experiment [2], 4.46.

For the molecule `CCOC(=O)c1nc2ccccc2nc1C#CC1CC1`, the results for the pIC50 in experiment [1] and in experiment [2] were 5.12 and 5.21, respectively.

In the case of `CCOC(=O)c1nc2ccccc2nc1C#Cc1ccc(C)cc1`, the negative logarithm of the IC50 (pIC50) in experiment [1] and in experiment [2] was 5.48 throughout.

Regarding `CCOC(=O)c1nc2ccccc2nc1C#Cc1cccc(F)c1`, the negative logarithm of the IC50 (pIC50) in experiment [1] is 5.52; in experiment [2], 5.72.
